What was measured:
human CSNK1D = target: T1, human CSNK1D (Homo sapiens, UniProt P48730); assay: Whole Cell nBRET CSNK1D Binding Assay; details: living CHO cells stably expressing human CSNK1D tagged with nanoluciferase; NanoBret tracer 130 nM; 2 hours at 37 C
T1 construct: expressed in transfected cells

[1] = target: T2, human recombinant GST cleaved CSNK1D (Homo sapiens, UniProt P48730); assay: Purified Enzyme Assay (ADP-Glo CSNK1D Kinase Assay); format: biochemical; details: 2 nM CSNK1D; peptide substrate 150 μM; ATP 20 μM; 45 minutes at room temperature
T2 construct: GST (cleaved yes); purchased University of Dundee clone DU 19064
How it was run: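 Percent activity derived from ADP-Glo quantification of ADP produced. Reactions: compound dose-response with human recombinant GST-cleaved CSNK1D, ATP and substrate peptide PLSRTL-pS-VASLPGL, incubated 45 min at room temperature.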

T1 sequence (P48730 whole entry): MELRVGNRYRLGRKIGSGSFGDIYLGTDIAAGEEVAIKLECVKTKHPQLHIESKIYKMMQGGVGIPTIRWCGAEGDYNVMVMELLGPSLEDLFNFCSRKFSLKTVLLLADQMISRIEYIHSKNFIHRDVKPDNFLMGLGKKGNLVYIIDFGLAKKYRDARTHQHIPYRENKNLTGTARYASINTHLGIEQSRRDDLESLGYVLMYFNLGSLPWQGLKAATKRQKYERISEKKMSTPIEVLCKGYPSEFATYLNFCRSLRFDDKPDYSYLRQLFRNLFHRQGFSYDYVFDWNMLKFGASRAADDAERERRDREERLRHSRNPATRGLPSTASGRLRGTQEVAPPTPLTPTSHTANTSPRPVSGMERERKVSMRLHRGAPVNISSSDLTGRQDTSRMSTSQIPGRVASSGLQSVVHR
T2 sequence (P48730 whole entry): as above

Compound | IC50 (human CSNK1D) | IC50 [1]
Cc1nc2[nH]nc(C)c2c(-c2c(-c3ccc(F)cn3)nn3c2CC[C@@]2(C3)CC2(F)F)c1F (single isomer, unassigned) [Example 333, (*S)-2,2-Difluoro-3′-(5-fluoro-3,6-dimethyl-1H-pyrazolo[3,4-b]pyridin-4-yl)-2′-(5-fluoropyridin-2-yl)-4′,5′-dihydro-7′H-spiro[cyclopropane-1,6′-pyrazolo[1,5-a]pyridine]] | > 10000 nM | 4960 nM
CC1(C)CCc2c(-c3ccnc4[nH]ncc34)c(-c3ccc(F)cn3)nn2C1 [Example 49, 4-[2-(5-Fluoro-2-pyridyl)-6,6-dimethyl-5,7-dihydro-4H-pyrazolo[1,5-a]pyridin-3-yl]-1H-pyrazolo[3,4-b]pyridine] | 11 nM | 1 nM
C[C@]1(C(F)(F)F)Cn2nc(-c3ccc(F)cc3)c(-c3ccn4nccc4c3)c2CO1 (single isomer, unassigned) [Example 412, (*R)-2-(4-Fluorophenyl)-6-methyl-3-(pyrazolo[1,5-a]pyridin-5-yl)-6-(trifluoromethyl)-6,7-dihydro-4H-pyrazolo[5,1-c][1,4]oxazine] | 694 nM | 149 nM
Fc1ccc(-c2nn3c(c2-c2ccnc4[nH]ncc24)CCC2C3C2(F)F)nc1 (racemic) [Example 58, (Racemic) 6,6-Difluoro-2-(5-fluoropyridin-2-yl)-3-(1H-pyrazolo[3,4-b]pyridin-4-yl)-5,5a,6,6a-tetrahydro-4H-cyclopropa[e]pyrazolo[1,5-a]pyridine] | 65 nM | 5 nM
CC1(C)Cn2nc(-c3ccc(F)cn3)c(-c3ccnc(C(F)F)c3)c2CO1 [Example 129, 3-(2-(Difluoromethyl)pyridin-4-yl)-2-(5-fluoropyridin-2-yl)-6,6-dimethyl-6,7-dihydro-4H-pyrazolo[5,1-c][1,4]oxazine] | 440 nM | 36 nM
Fc1ccc(-c2nn3c(c2-c2c(F)cnc4[nH]ncc24)CC2(C3)CC2(F)F)nc1 (single isomer, unassigned) [Example 259, (*R)-1′.1′-Difluoro-3-(5-fluoro-1H-pyrazolo[3,4-b]pyridin-4-yl)-2-(5-fluoro-2-pyridyl)spiro[4,6-dihydropyrrolo[1,2-b]pyrazole-5,2′-cyclopropane]] | 1920 nM | 79 nM

Other lines, results leading:

IC50 (human CSNK1D) | IC50 [1] | Compound
305 nM | 13 nM | C[C@@H]1C[C@@H](C)n2nc(-c3ccc(F)cn3)c(-c3ccnc4[nH]ncc34)c2O1 (single isomer, unassigned) [Example 204, (5*R,7*R)-2-(S-Fluoropyridin-2-yl)-5,7-dimethyl-3-(1H-pyrazolo[3,4-b]pyridin-4-yl)-6,7-dihydro-5H-pyrazolo[5,1-b][1,3]oxazine]
56 nM | 4 nM | Cc1cc(-c2c(-c3ccc(F)cn3)nn3c2OC(C)CC3)c2cn[nH]c2n1 (single isomer, unassigned) [Example 200, (*S)-2-(5-Fluoro-2-pyridyl)-5-methyl-3-(6-methyl-1H-pyrazolo[3,4-b]pyridin-4-yl)-6,7-dihydro-5H-pyrazolo[5,1-b][1,3]oxazine]
70 nM | 8 nM | CC1(C)COc2c(-c3ccn4nccc4c3)c(-c3ccc(F)cn3)nn2C1 [Example 449, 2-(5-Fluoropyridin-2-yl)-6,6-dimethyl-3-(pyrazolo[1,5-a]pyridin-5-yl)-6,7-dihydro-5H-pyrazolo[5,1-b][1,3]oxazine]
65 nM | 6 nM | Fc1ccc(-c2nn3c(c2-c2c(F)cnc4[nH]ncc24)OC[C@H]2C[C@H]2C3)nc1 (stereo in doubt) [Example 481, (5a*S,6a*R)-3-(5-Fluoro-1H-pyrazolo[3,4-b]pyridin-4-yl)-2-(5-fluoropyridin-2-yl)-5a,6,6a,7-tetrahydro-5H-cyclopropa[e]pyrazolo[5,1-b][1,3]oxazepine]
